Assay results: ChEMBL document CHEMBL1944601, “N-(4-Substituted-benzoyl)-N'-(β-d-glucopyranosyl)ureas as inhibitors of glycogen phosphorylase: Synthesis and evaluation by kinetic, crystallographic, and molecular modelling methods” (Bioorg Med Chem, 2012); call rule not given here

Columns and labels:
[1] = biological target: T1, Glycogen phosphorylase, muscle form (Oryctolagus cuniculus, UniProt P00489)
T1 sequence (P00489 whole entry): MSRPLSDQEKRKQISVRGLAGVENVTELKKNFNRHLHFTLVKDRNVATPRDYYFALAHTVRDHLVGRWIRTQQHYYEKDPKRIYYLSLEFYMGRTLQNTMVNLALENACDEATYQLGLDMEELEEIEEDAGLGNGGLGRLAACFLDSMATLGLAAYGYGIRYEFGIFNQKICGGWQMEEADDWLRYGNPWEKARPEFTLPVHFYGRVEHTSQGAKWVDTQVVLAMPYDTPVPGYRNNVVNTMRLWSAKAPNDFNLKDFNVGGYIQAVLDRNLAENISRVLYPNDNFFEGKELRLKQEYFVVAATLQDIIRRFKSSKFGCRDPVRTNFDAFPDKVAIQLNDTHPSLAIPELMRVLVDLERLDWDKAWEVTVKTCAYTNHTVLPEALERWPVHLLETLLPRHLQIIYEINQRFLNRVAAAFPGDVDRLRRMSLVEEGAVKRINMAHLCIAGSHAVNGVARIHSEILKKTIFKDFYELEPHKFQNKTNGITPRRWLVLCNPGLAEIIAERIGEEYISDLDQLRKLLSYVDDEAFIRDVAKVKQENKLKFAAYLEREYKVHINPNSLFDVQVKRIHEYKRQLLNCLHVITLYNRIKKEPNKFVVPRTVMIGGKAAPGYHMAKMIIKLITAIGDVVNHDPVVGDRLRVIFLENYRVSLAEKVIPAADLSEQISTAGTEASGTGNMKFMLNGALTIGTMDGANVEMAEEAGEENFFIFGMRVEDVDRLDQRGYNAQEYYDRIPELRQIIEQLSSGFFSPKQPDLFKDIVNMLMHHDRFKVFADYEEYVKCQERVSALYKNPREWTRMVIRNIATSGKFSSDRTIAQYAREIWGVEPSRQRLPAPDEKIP
Description: (§1) Inhibition of rabbit muscle glycogen phosphorylase b assessed as inorganic phosphate release at pH 6.8

[2] = biological target: T1, Glycogen phosphorylase, muscle form; remark: listed apart in the source
Description: as §1

[N-]=[N+]=NCC(=O)N[C@@H]1O[C@H](CO)[C@@H](O)[C@H](O)[C@H]1O
Ki [1]: 49 µM

O=C(NC(=O)c1ccc(Cl)cc1)N[C@@H]1O[C@H](CO)[C@@H](O)[C@H](O)[C@H]1O
Ki [1]: 4.4 µM

O=C(NC(=O)c1ccc(-c2ccccc2)cc1)N[C@@H]1O[C@H](CO)[C@@H](O)[C@H](O)[C@H]1O
Ki [1]: 3.7 µM

O=C(N[C@@H]1O[C@H](CO)[C@@H](O)[C@H](O)[C@H]1O)C(F)(F)F
Ki [1]: 75 µM

COC(=O)N[C@@H]1O[C@H](CO)[C@@H](O)[C@H](O)[C@H]1O
Ki [1]: 210 µM

O=C(O)CCC(=O)N[C@@H]1O[C@H](CO)[C@@H](O)[C@H](O)[C@H]1O
Ki [1]: 20 µM

O=C(N[C@H]1O[C@H](CO)[C@@H](O)[C@H](O)[C@H]1O)C(F)(F)F
Ki [2]: Not Active

COc1ccc(C(=O)NC(=O)N[C@@H]2O[C@H](CO)[C@@H](O)[C@H](O)[C@H]2O)cc1
Ki [1]: 3.2 µM

COC(=O)c1ccc(C(=O)NC(=O)N[C@@H]2O[C@H](CO)[C@@H](O)[C@H](O)[C@H]2O)cc1
Ki [1]: 4 µM

O=C(NC(=O)c1ccc(C(=O)OCc2ccccc2)cc1)N[C@@H]1O[C@H](CO)[C@@H](O)[C@H](O)[C@H]1O
Ki [1]: 150 µM

O=C(NC(=O)c1ccc(C(=O)O)cc1)N[C@@H]1O[C@H](CO)[C@@H](O)[C@H](O)[C@H]1O
Ki [1]: 85 µM

CC(=O)NC(=O)N[C@@H]1O[C@H](CO)[C@@H](O)[C@H](O)[C@H]1O
Ki [1]: 370 µM

NC(=O)NC1O[C@H](CO)[C@@H](O)[C@H](O)[C@H]1O (single isomer, unassigned)
Ki [1]: 140 µM
